{"source": "paper PMC3729217", "about": "(Chembiochem : a European journal of chemical biology, 2010)", "key": {"PKCδ-ECFP": {"target": "PKCδ-ECFP (Homo sapiens, UniProt Q05655)", "sequence (Q05655 whole entry)": "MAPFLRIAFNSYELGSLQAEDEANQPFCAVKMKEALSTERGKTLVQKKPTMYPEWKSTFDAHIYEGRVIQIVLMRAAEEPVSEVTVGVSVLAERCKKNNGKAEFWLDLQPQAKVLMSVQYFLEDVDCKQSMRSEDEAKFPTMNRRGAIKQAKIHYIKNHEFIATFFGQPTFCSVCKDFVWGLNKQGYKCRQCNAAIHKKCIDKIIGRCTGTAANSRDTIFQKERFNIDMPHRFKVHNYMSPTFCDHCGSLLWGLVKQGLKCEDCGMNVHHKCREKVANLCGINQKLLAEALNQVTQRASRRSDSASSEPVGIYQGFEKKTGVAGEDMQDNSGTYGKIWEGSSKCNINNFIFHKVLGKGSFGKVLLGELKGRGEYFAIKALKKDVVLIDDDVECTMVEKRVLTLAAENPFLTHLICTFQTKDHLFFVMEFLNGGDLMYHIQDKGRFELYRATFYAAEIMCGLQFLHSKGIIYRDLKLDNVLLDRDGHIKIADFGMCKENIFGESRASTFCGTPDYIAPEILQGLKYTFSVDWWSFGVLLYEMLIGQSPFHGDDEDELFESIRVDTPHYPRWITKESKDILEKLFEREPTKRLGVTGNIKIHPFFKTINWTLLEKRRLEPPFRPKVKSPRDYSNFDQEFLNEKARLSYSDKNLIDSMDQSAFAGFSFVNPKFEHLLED", "test": "Plasma membrane translocation of PKCδ-ECFP in transfected MCF-7 cells", "format": "cell-based, rat", "settings": "MCF-7 cells expressing PKCδ-ECFP, stimulated with 40 μM, 37°C"}, "PKCα-EGFP": {"target": "PKCα-EGFP (Rattus norvegicus, UniProt P05696)", "test": "Plasma membrane translocation of PKCα-EGFP in transfected MCF-7 cells", "format": "cell-based", "settings": "MCF-7 cells expressing PKCα-EGFP, stimulated with 40 μM, 37°C"}, "PKCε-EGFP": {"target": "T1, PKCε-EGFP (Rattus norvegicus, UniProt P09216)", "T1 sequence (P09216 1-737)": "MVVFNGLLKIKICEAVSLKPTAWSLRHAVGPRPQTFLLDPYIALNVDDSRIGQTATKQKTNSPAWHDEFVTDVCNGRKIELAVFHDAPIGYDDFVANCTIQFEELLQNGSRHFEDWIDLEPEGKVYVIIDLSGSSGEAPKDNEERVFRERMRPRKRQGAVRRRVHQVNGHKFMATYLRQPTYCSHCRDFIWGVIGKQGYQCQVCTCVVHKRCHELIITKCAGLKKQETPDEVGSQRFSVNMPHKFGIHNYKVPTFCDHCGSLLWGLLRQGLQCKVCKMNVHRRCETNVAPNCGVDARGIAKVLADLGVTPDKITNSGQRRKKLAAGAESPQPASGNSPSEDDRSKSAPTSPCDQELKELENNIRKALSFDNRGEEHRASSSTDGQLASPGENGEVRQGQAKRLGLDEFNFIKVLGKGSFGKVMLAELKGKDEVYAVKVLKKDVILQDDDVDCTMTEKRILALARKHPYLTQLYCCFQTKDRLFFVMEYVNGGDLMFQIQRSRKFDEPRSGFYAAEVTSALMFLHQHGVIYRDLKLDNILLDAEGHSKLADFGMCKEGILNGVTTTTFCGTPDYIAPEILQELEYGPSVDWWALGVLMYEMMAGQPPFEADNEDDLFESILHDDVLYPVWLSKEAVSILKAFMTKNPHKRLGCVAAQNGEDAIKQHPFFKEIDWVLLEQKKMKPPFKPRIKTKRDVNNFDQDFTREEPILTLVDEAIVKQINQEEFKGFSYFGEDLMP", "test": "Plasma membrane translocation of PKCε-EGFP in transfected MCF-7 cells", "format": "cell-based", "settings": "MCF-7 cells expressing PKCε-EGFP, stimulated with 40 μM, 37°C"}}, "data": [{"smiles": "CCCCCCCCCCCCCC(=O)O[C@@H]1[C@@H](C)[C@@]2(O)[C@@H](C=C(CO)C[C@]3(O)C(=O)C(C)=C[C@@H]23)[C@@H]2C(C)(C)[C@]12OC(C)=O", "note": "[PMA, phorbol 12-myristate 13-acetate]", "values": [{"measurement": "t1/2, half-time of plasma membrane localization", "setting": "PKCδ-ECFP", "result": "47 ± 22", "unit": "s"}, {"measurement": "t1/2, half-time of plasma membrane localization", "setting": "PKCα-EGFP", "result": "547 ± 192", "unit": "s"}, {"measurement": "t1/2, half-time of plasma membrane localization", "setting": "PKCε-EGFP", "result": "31 ± 18", "unit": "s"}]}]}
